Activity calls are given as the source filed them. The rule behind the calls is not given here.
Columns and labels:
HepG2 [1] = assay: Cytotoxicity against human HepG2 cells assessed as cell viability up to 100 uM incubated for 24 hrs by MTT assay; format: toxicity, cell-based; details: hepg2, 24 h
Dipeptidyl peptidase 4 = Dipeptidyl peptidase 4 (Homo sapiens, UniProt P27487); assay: Inhibition of human recombinant DPP-4 using Gly-Pro-AMC as fluorogenic substrate by measuring fluorescence intensity incubated for 30 mins
Mus musculus [2] = assay: Effect on STZ-NA induced histological abnormalities in diabetic mouse model assessed as change in hepatocyte density at 10 mg/kg, po after 21 days by hematoxylin and eosin staining based microscopic assay; format: functional, organism-based; details: time 21.0 day
Mus musculus [3] = assay: Reversal of STZ-NA induced increase in DPP-4 mRNA production in po dosed diabetic mouse model assessed as decrease in DPP-4 mRNA expression in liver tissue by measuring mean fluorescence intensity after 21 days by RT-qPCR analysis; format: functional, organism-based; details: dose 5-10 mg/kg, time 21.0 day
Mus musculus [4] = assay: Reversal of STZ-NA induced histological abnormalities in diabetic mouse model assessed as enlarged extracellular gaps at 10 mg/kg, po after 21 days by hematoxylin and eosin staining based microscopic assay; format: functional, organism-based; details: time 21.0 day
[5] = Toxicity in STZ-NA induced diabetic Swiss Albino mouse model assessed as decrease in body weight at 5 mg/kg, po measured after 21 days; format: organism-based; details: in vivo, 504 h, time 21 day
Mus musculus [6] = assay: Anti-diabetic activity against STZ-NA induced diabetic Swiss Albino mouse model assessed as decrease in blood glucose level at 10 mg/kg, po measured up to 240 mins by Oral glucose tolerance test relative to control; format: functional, organism-based
Mus musculus [7] = species: Mus musculus; details: dose 10 mg/kg; route po; time 21 day
Mus musculus [8] = assay: Effect on STZ-NA induced histological abnormalities in diabetic mouse model assessed as change in hepatocyte structure at 10 mg/kg, po after 21 days by hematoxylin and eosin staining based microscopic assay; format: functional, organism-based; details: time 21.0 day
[9] = Toxicity in STZ-NA induced diabetic Swiss Albino mouse model assessed as decrease in body weight at 10 mg/kg, po measured after 21 days; format: organism-based; details: in vivo, 504 h, time 21 day
Mus musculus [10] = species: Mus musculus; details: dose 5 mg/kg; route po; time 21 day
Description: Reversal of STZ-NA induced total ROS formation in diabetic mouse model assessed as decrease in ROS production by measuring mean fluorescence intensity at 5 mg/kg, po after 21 days (Rvb = 287228 No_unit)

Mus musculus [11] = species: Mus musculus; details: dose 10 mg/kg; route po; time 21 day; remark: listed apart in the source
Description: Reversal of STZ-NA induced increase in DPP-4 production in diabetic mouse model assessed as decrease in DPP-4 expression in liver tissue by measuring mean fluorescence intensity at 10 mg/kg, po after 21 days by flow cytometry (Rvb = 322245 No_unit)

Mus musculus [12] = assay: Reversal of STZ-NA induced increase in DPP-4 expression in po dosed diabetic mouse model assessed as decrease in DPP-4 expression in cellular region after 21 days by Immunohistochemical analysis; format: functional, organism-based; details: dose 5-10 mg/kg, time 21.0 day
Mus musculus [13] = assay: Effect on STZ-NA induced histological abnormalities in diabetic mouse model assessed as change in appearance of liver at 10 mg/kg, po after 21 days by hematoxylin and eosin staining based microscopic assay; format: functional, organism-based; details: time 21.0 day
Mus musculus [14] = assay: Reversal of STZ-NA induced histological abnormalities in diabetic mouse model assessed as hepatic portal vein at 10 mg/kg, po after 21 days by hematoxylin and eosin staining based microscopic assay; format: functional, organism-based; details: time 21.0 day
Mus musculus [15] = species: Mus musculus; details: dose 5 mg/kg; route po; time 21 day; remark: listed apart in the source
Description: Reversal of STZ-NA induced increase in DPP-4 production in diabetic mouse model assessed as decrease in DPP-4 expression in liver tissue by measuring mean fluorescence intensity at 5 mg/kg, po after 21 days by flow cytometry (Rvb = 322245 No_unit)

Mus musculus [16] = species: Mus musculus; details: dose 10 mg/kg; route po; time 21 day; remark: listed apart in the source
Description: Reversal of STZ-NA induced total ROS formation in diabetic mouse model assessed as decrease in ROS production by measuring mean fluorescence intensity at 10 mg/kg, po after 21 days (Rvb = 287228 No_unit)

Mus musculus [17] = assay: Reversal of STZ-NA induced histological abnormalities in diabetic mouse model assessed as vacuolation and mild congestion at 10 mg/kg, po after 21 days by hematoxylin and eosin staining based microscopic assay; format: functional, organism-based; details: time 21.0 day
HepG2 [18] = details: dose 15 nM; time 24 hrs
Mus musculus [19] = assay: Anti-diabetic activity against STZ-NA induced diabetic Swiss Albino mouse model assessed as decrease in blood glucose level at 5 mg/kg, po measured up to 240 mins by Oral glucose tolerance test relative to control; format: functional, organism-based
Mus musculus [20] = species: Mus musculus; details: dose 5 mg/kg; route po; time 21 day; remark: listed apart in the source
Mus musculus [21] = assay: Reversal of STZ-NA induced histological abnormalities in diabetic mouse model assessed as vacuoles at 10 mg/kg, po after 21 days by hematoxylin and eosin staining based microscopic assay; format: functional, organism-based; details: time 21.0 day
HepG2 [22] = details: dose 15 nM; time 24 hrs; remark: listed apart in the source
Mus musculus [23] = assay: Effect on STZ-NA induced histological abnormalities in diabetic mouse model assessed as change in hepatocyte size at 10 mg/kg, po after 21 days by hematoxylin and eosin staining based microscopic assay; format: functional, organism-based; details: time 21.0 day
Mus musculus [24] = assay: Acute anti-hyperglycemic activity against STZ-NA induced diabetic Swiss Albino mouse model assessed as reduction in blood glucose level at 5 mg/kg, po measured up to 24 hrs; format: functional, organism-based
Mus musculus [25] = assay: Chronic anti-hyperglycemic activity against STZ-NA induced diabetic Swiss Albino mouse model assessed as reduction in blood glucose level at 5 mg/kg, po measured up to 21 days; format: functional, organism-based; details: time <= 21.0 day
Mus musculus [26] = assay: Chronic anti-hyperglycemic activity against STZ-NA induced diabetic Swiss Albino mouse model assessed as reduction in blood glucose level at 10 mg/kg, po measured up to 21 days; format: functional, organism-based; details: time <= 21.0 day
Mus musculus [27] = assay: Acute anti-hyperglycemic activity against STZ-NA induced diabetic Swiss Albino mouse model assessed as reduction in blood glucose level at 10 mg/kg, po measured up to 24 hrs; format: functional, organism-based

Sequence of Dipeptidyl peptidase 4 (P27487 whole entry): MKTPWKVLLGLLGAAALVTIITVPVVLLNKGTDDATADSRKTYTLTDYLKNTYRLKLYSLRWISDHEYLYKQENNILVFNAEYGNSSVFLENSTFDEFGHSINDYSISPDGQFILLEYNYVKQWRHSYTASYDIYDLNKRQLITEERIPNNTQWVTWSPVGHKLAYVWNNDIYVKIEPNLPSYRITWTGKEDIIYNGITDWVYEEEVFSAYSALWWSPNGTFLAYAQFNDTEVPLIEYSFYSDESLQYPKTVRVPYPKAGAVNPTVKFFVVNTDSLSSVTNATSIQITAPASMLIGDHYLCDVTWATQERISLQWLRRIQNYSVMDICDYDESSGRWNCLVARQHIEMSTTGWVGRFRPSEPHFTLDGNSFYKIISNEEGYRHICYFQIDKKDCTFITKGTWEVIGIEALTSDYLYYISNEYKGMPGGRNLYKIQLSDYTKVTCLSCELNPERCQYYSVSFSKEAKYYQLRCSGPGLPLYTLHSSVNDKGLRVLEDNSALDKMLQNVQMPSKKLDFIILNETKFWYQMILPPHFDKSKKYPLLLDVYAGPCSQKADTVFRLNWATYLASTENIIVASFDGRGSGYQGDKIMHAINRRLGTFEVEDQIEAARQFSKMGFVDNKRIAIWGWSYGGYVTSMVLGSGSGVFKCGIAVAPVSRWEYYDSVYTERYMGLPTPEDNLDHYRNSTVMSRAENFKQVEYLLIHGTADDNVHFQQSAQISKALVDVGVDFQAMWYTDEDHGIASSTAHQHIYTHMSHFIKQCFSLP

## C=CCn1c(=O)c2c(ncn2Cc2ccc(C#N)cc2)n(Cc2ccccc2)c1=O
HepG2 [1]
  Activity: Non-toxic

## COc1cccc(Cn2c(N3CCOCC3)nc3c2c(=O)n(C)c(=O)n3C)c1
Dipeptidyl peptidase 4
  IC50: 0.0279 µM
HepG2 [1]
  Activity: Non-toxic

## Cn1c(=O)c2c(nc(N3CCOCC3)n2Cc2cccc([N+](=O)[O-])c2)n(C)c1=O
HepG2 [1]
  Activity: Non-toxic

## Cn1c(=O)c2c(nc(Oc3ccc([N+](=O)[O-])cc3)n2Cc2ccc(Cl)cc2Cl)n(C)c1=O
HepG2 [1]
  Activity: Non-toxic

## Cn1c(=O)c2c(nc(Oc3ccc(C=O)cc3)n2Cc2ccc(F)cc2)n(C)c1=O
HepG2 [1]
  Activity: Non-toxic

## Cn1c(=O)c2c(nc(Oc3ccc([N+](=O)[O-])cc3)n2CC(=O)c2ccc(-c3ccccc3)cc2)n(C)c1=O
HepG2 [1]
  Activity: Non-toxic

## C=CCn1c(Oc2ccc([N+](=O)[O-])cc2)nc2c1c(=O)n(Cc1nc(C)c3ccccc3n1)c(=O)n2C
Mus musculus [2]
  Activity: inactive
Mus musculus [3]
  Activity: Dose-dependent-effect
Mus musculus [4]
  Activity: Active
[5]
  Activity: Toxic
Mus musculus [6]
  Activity: Active
Mus musculus [7]
  Flu intensity: 9136
Mus musculus [8]
  Activity: inactive
[9]
  Activity: Toxic
Mus musculus [10]
  Flu intensity: 165558
Mus musculus [11]
  Flu intensity: 154821
Mus musculus [12]
  Activity: Dose-dependent-effect
HepG2 [1]
  Activity: Non-toxic
Mus musculus [13]
  Activity: inactive
Mus musculus [14]
  Activity: Active; Hepatic Portal Vein Looked Similar To Normal Group
Mus musculus [15]
  Flu intensity: 248748
Mus musculus [16]
  Flu intensity: 138121
Mus musculus [17]
  Activity: inactive
HepG2 [18]
  Flu intensity: 3565
Mus musculus [19]
  Activity: Active
Mus musculus [20]
  Flu intensity: 36602
Mus musculus [21]
  Activity: Active
HepG2 [22]
  Flu intensity: 82988
Mus musculus [23]
  Activity: inactive

## Cn1c(=O)[nH]c(=O)c2c1nc(Oc1ccc([N+](=O)[O-])cc1)n2Cc1ccc(C#N)cc1
HepG2 [1]
  Activity: Non-toxic

## Cn1c(=O)c2c(nc(Oc3ccc4ccc(=O)oc4c3)n2CC(=O)c2ccc(-c3ccccc3)cc2)n(C)c1=O
HepG2 [1]
  Activity: Non-toxic

## Cn1c(=O)c2c(nc(N3CCOCC3)n2Cc2ccc(F)cc2)n(C)c1=O
HepG2 [1]
  Activity: Non-toxic

## Cc1ccc(Cn2cnc3c2c(=O)n(Cc2ccc(C#N)cc2)c(=O)n3C)cc1
HepG2 [1]
  Activity: Non-toxic

## Cn1c(=O)[nH]c(=O)c2c1nc(N1CCOCC1)n2Cc1ccc(Cl)cc1
HepG2 [1]
  Activity: Non-toxic

## Cn1c(=O)n(Cc2ccccc2)c(=O)c2c1nc(Oc1ccc([N+](=O)[O-])cc1)n2Cc1ccc(C#N)cc1
HepG2 [1]
  Activity: Non-toxic

## CC#CCn1c(N2CCC[C@@H](N)C2)nc2c1c(=O)n(Cc1nc(C)c3ccccc3n1)c(=O)n2C [LINAGLIPTIN]
Mus musculus [24]
  Activity: Active
[5]
  Activity: Toxic
Mus musculus [10]
  Flu intensity: 15930
Mus musculus [25]
  Activity: Active
Mus musculus [15]
  Flu intensity: 20334
HepG2 [18]
  Flu intensity: 1212
Mus musculus [19]
  Activity: Active
Mus musculus [20]
  Flu intensity: 2520
HepG2 [22]
  Flu intensity: 3493

## Cn1c(=O)c2c(nc(Oc3ccc(Br)cc3)n2CC(=O)c2ccc(-c3ccccc3)cc2)n(C)c1=O
HepG2 [1]
  Activity: Non-toxic

## Cn1c(=O)c2c(nc(Oc3ccc(C=O)cc3)n2Cc2ccc(Cl)cc2Cl)n(C)c1=O
HepG2 [1]
  Activity: Non-toxic

## Cn1c(=O)c2c(nc(N3CCOCC3)n2Cc2ccccc2)n(C)c1=O
Mus musculus [26]
  Activity: Active; Results Comparable To Linagliptin
Mus musculus [2]
  Activity: inactive
Mus musculus [3]
  Activity: Dose-dependent-effect
Mus musculus [4]
  Activity: Active
[5]
  Activity: Toxic
Mus musculus [27]
  Activity: Active; Results Comparable To Linagliptin
Mus musculus [6]
  Activity: Active
Mus musculus [7]
  Flu intensity: 4811
Dipeptidyl peptidase 4
  IC50: 0.0157 µM
Mus musculus [8]
  Activity: inactive
[9]
  Activity: Toxic
Mus musculus [10]
  Flu intensity: 82220
Mus musculus [11]
  Flu intensity: 89888
Mus musculus [12]
  Activity: Dose-dependent-effect
HepG2 [1]
  Activity: Non-toxic
Mus musculus [13]
  Activity: inactive
Mus musculus [14]
  Activity: Active; Hepatic Portal Vein Looked Similar To Normal Group
Mus musculus [15]
  Flu intensity: 240545
Mus musculus [16]
  Flu intensity: 49658
Mus musculus [17]
  Activity: inactive
HepG2 [18]
  Flu intensity: 1460
Mus musculus [19]
  Activity: Active
Mus musculus [20]
  Flu intensity: 11036
Mus musculus [21]
  Activity: Active
HepG2 [22]
  Flu intensity: 6930
Mus musculus [23]
  Activity: inactive

Reference: ChEMBL document CHEMBL6078720, “Design and synthesis of novel 3,7-dihydro-1H-purine-2,6-diones as DPP-4 inhibitors: An in silico, in vitro and in vivo approach” (Eur J Med Chem, 2025)
